Assays:
Test in all cases: relative viability (nuclei count vs DMSO), 5 days (fraction); higher = more cells survive
DM3189 + Trametinib = compound: C1CN(CCN1)C2=CC=C(C=C2)C3=CN4C(=C(C=N4)C5=CC=NC6=CC=CC=C56)N=C3 [DM3189] + CC(=O)Nc1cccc(-n2c(=O)n(C3CC3)c(=O)c3c(Nc4ccc(I)cc4F)n(C)c(=O)c(C)c32)c1 [Trametinib] (partner 0.02 µM)
Method in brief: (§1)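 Lung cancer cell lines, seeded in 1536-well plates, were treated the following day by pin tool with a single drug or with five library-drug doses (not always all listed) in √10 steps on top of a fixed anchor-drug dose. Cells were fixed and nuclei stained in one step after 5 days, and nuclei were counted. Relative viability is the nuclei count for treated wells divided by that for vehicle wells, reported as medians of duplicate plates.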

DM3189 + Navitoclax = compound: C1CN(CCN1)C2=CC=C(C=C2)C3=CN4C(=C(C=N4)C5=CC=NC6=CC=CC=C56)N=C3 [DM3189] + CC1(C)CCC(c2ccc(Cl)cc2)=C(CN2CCN(c3ccc(C(=O)NS(=O)(=O)c4ccc(N[C@H](CCN5CCOCC5)CSc5ccccc5)c(S(=O)(=O)C(F)(F)F)c4)cc3)CC2)C1 [Navitoclax] (partner 0.5 µM)
Method in brief: as §1

DM3189 + Luminespib = compound: C1CN(CCN1)C2=CC=C(C=C2)C3=CN4C(=C(C=N4)C5=CC=NC6=CC=CC=C56)N=C3 [DM3189] + CCNC(=O)c1noc(-c2cc(C(C)C)c(O)cc2O)c1-c1ccc(CN2CCOCC2)cc1 [Luminespib] (partner 0.01 µM)
Method in brief: as §1

DM3189 + AZD7762 = compound: C1CN(CCN1)C2=CC=C(C=C2)C3=CN4C(=C(C=N4)C5=CC=NC6=CC=CC=C56)N=C3 [DM3189] + NC(=O)Nc1cc(-c2cccc(F)c2)sc1C(=O)N[C@H]1CCCNC1 [AZD7762] (partner 0.2 µM)
Method in brief: as §1

DM3189 + Decitabine = compound: C1CN(CCN1)C2=CC=C(C=C2)C3=CN4C(=C(C=N4)C5=CC=NC6=CC=CC=C56)N=C3 [DM3189] + Nc1ncn([C@H]2C[C@H](O)[C@@H](CO)O2)c(=O)n1 [Decitabine] (partner 2 µM)
Method in brief: as §1

Cell Line | relative viability (DM3189 + Trametinib; first compound 0.08 µM) | relative viability (DM3189 + Trametinib; first compound 0.253 µM) | relative viability (DM3189 + Trametinib; first compound 0.8 µM) | relative viability (DM3189 + Trametinib; first compound 2.53 µM) | relative viability (DM3189 + Navitoclax; first compound 0.08 µM) | relative viability (DM3189 + Navitoclax; first compound 0.253 µM) | relative viability (DM3189 + Navitoclax; first compound 0.8 µM) | relative viability (DM3189 + Navitoclax; first compound 2.53 µM) | relative viability (DM3189 + Luminespib; first compound 0.08 µM) | relative viability (DM3189 + Luminespib; first compound 0.253 µM) | relative viability (DM3189 + Luminespib; first compound 0.8 µM) | relative viability (DM3189 + Luminespib; first compound 2.53 µM) | relative viability (DM3189 + AZD7762; first compound 0.08 µM) | relative viability (DM3189 + AZD7762; first compound 0.253 µM) | relative viability (DM3189 + AZD7762; first compound 0.8 µM) | relative viability (DM3189 + AZD7762; first compound 2.53 µM) | relative viability (DM3189 + Decitabine; first compound 0.08 µM) | relative viability (DM3189 + Decitabine; first compound 0.253 µM) | relative viability (DM3189 + Decitabine; first compound 0.8 µM) | relative viability (DM3189 + Decitabine; first compound 2.53 µM)
201T | 0.729 | 0.743 | 0.728 | 0.734 | 1.17 | 1.21 | 1.18 | 1.23 | 1.16 | 1.01 | 1.14 | 0.941 | 0.717 | 0.639 | 0.611 | 0.537 | 0.831 | 0.817 | 0.828 | 0.875
A-427 | 0.865 | 0.736 | 0.638 | 0.819 | 0.937 | 0.936 | 0.893 | 1.13 | 1.13 | 0.89 | 0.806 | 0.745 | 0.684 | 0.701 | 0.677 | 0.723 | 0.591 | 0.546 | 0.541 | 0.618
BEN | 0.982 | 1.01 | 1.11 | 1.21 | 0.448 | 0.0733 | 0.0662 | 0.0697 | 0.387 | 0.555 | 0.516 | 0.382 | 0.76 | 0.646 | 0.702 | 0.738 | 0.7 | 0.707 | 0.714 | 0.752
CAL-12T | 0.405 | 0.339 | 0.384 | 0.488 | 1.16 | 1.09 | 1.25 | 1.35 | 0.375 | 0.499 | 0.454 | 0.217 | 0.533 | 0.629 | 0.585 | 0.684 |  |  |  | 
ChaGo-K-1 | 0.937 | 0.876 | 0.919 | 0.936 | 1.22 | 0.971 | 1.1 | 0.825 | 0.643 | 0.52 | 0.492 | 0.676 | 0.919 | 0.857 | 0.605 | 0.83 | 0.521 | 0.507 | 0.475 | 0.537
EKVX | 0.325 |  | 0.328 | 0.338 | 0.816 | 0.899 | 0.9 | 1.07 | 0.96 | 0.874 | 0.908 | 0.962 | 0.809 |  | 0.623 | 0.638 | 0.331 |  | 0.359 | 0.363
EMC-BAC-2 | 0.925 | 0.877 | 0.891 | 1.04 | 1.13 | 1.14 | 1.13 | 1.02 | 1.24 | 1.07 | 1.06 | 1.25 | 1.26 | 1.03 | 0.976 | 1.05 | 0.954 | 0.968 | 0.909 | 1.01
EPLC-272H | 0.285 | 0.326 | 0.267 | 0.322 | 1.25 | 1.07 | 1.11 | 1.08 | 0.738 | 0.317 | 0.25 | 0.281 | 0.174 | 0.219 | 0.276 | 0.186 | 0.374 | 0.359 | 0.364 | 0.424
H3255 | 0.789 | 0.731 | 0.513 | 0.732 | 0.685 | 0.577 | 0.559 | 0.5 | 1.09 | 0.957 | 0.799 | 0.951 | 1.14 | 0.883 | 0.88 | 0.943 | 0.718 | 0.748 | 0.473 | 0.71
HARA | 0.674 | 0.736 | 0.712 | 0.944 | 1.13 | 1.09 | 1.08 | 1.21 | 0.865 | 0.784 | 0.55 | 1.15 | 0.263 | 0.364 | 0.161 | 0.302 | 0.523 | 0.574 | 0.531 | 0.555
HCC-15 | 0.447 | 0.431 | 0.406 | 0.414 | 0.687 | 0.675 | 0.646 | 0.735 | 0.355 | 0.399 | 0.391 | 0.369 | 1.19 | 1.14 | 1.08 | 1.24 | 0.648 | 0.674 | 0.571 | 0.534
HCC-44 | 1.07 | 1.09 | 0.897 | 1.2 | 1.12 | 1.11 | 0.813 | 1.44 | 1.06 | 0.879 | 0.856 | 0.97 | 0.984 | 1.03 | 0.92 | 0.996 | 0.941 | 0.904 | 0.821 | 0.934
HCC-78 | 0.64 | 0.588 | 0.541 | 0.624 | 0.877 | 0.725 |  | 0.976 |  |  |  |  | 0.644 | 0.546 | 0.497 | 0.531 | 0.723 | 0.644 | 0.632 | 0.625
HCC-366 | 0.414 | 0.362 | 0.352 | 0.432 | 0.955 | 1.06 | 0.842 | 1.04 |  |  |  |  | 0.293 | 0.267 | 0.197 | 0.241 | 0.396 | 0.293 | 0.269 | 0.341
HCC-827 | 0.492 | 0.535 | 0.502 | 0.54 | 0.958 | 0.942 | 0.887 | 1.02 | 0.589 | 0.515 | 0.608 | 0.583 | 0.207 | 0.194 | 0.205 | 0.195 | 0.34 | 0.311 | 0.324 | 0.296
HOP-62 | 0.421 | 0.509 | 0.475 | 0.51 | 1.09 | 0.994 | 0.989 | 1.17 | 0.981 | 0.905 | 0.774 | 1.01 | 0.672 | 0.646 | 0.621 | 0.596 | 0.214 | 0.203 | 0.193 | 0.21

Source: the supplement of paper PMC10307832
